Data as given in PubChem BioAssay AID1259332 (Broad Institute, 2017).
The source made the active and inactive calls. The rule behind the calls is not given here.

The compounds below were run on B cell line, CD40 signaling inhibition reporter (assay: CD40 pathway inhibition in B cells – B cell lineage, dose response (AID 1259332);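 note: cells stimulated with CD40 ligand tCD40L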).

Question: For `O=C(NCCc1ccccc1)c1ccc2nccnc2c1`, which AC50 is on record?
Answer: Its AC50 is 6.02 µM.

Question: `O=c1cc(-c2ccc(O)cc2)oc2ccc3ccccc3c12` was tested. Which AC50 did it give?
Answer: The AC50 was 2.2 µM.

Question: `Cc1c(CCOC(=O)CC23CC4CC(CC(C)(C4)C2)C3)sc[n+]1CC(=O)c1ccccc1` was tested. Which AC50 did it give?
Answer: The AC50 was 3.22 µM.

Question: How did the AC50 turn out when `O=C(C[C@@H]1CC[C@H]2[C@@H](COC[C@@H](O)CN2Cc2cc(F)ccc2F)O1)NCc1ccc(Oc2ccccc2)cc1` was run?
Answer: Its AC50 is > 20 µM (inactive).

Question: For `O=[N+]([O-])c1ccc(N2CCOCC2)c2c1no[n+]2[O-]`, which AC50 is on record?
Answer: Its AC50 is 1.76 µM.

Question: `O=C(Nc1ccccn1)c1ccc(-c2ccccc2)cc1` was tested. Which AC50 did it give?
Answer: The AC50 was 2.35 µM.

Question: How did the AC50 turn out when `CC1=CC2OC3CC4OC(=O)C=CC=CC(=O)OCCC(C)C(O)C(=O)OCC2(CC1O)C4(C)C31CO1` (stereo unspecified) was run?
Answer: The AC50 was 0.0067 µM.

Question: `CC1=C(SCCO)C(=O)c2ccccc2C1=O` was tested. Which AC50 did it give?
Answer: Its AC50 is 2.6 µM.

Question: For `O=C1/C(=C/c2ccccc2)C[C@@]2(O)C3Cc4ccc(O)c5c4[C@@]2(CCN3CC2CC2)[C@H]1O5`, which AC50 is on record?
Answer: Its AC50 is 1.75 µM.

Question: `CCc1cnc(N2[C@H](C#N)[C@H](c3ccc(C#Cc4ccccc4F)cc3)[C@H]2CO)s1` was tested. Which AC50 did it give?
Answer: The AC50 was 9.09 µM.

Question: Which AC50 does the source give for `CCCCNC(=O)C1(C)CCN1C(=O)c1cc(-c2cccs2)oc1C` (stereo unspecified) here?
Answer: Its AC50 is 3.11 µM.

Question: With `C[C@H]1CN([C@@H](C)CO)C(=O)c2c(c3ccccc3n2C)-c2ccccc2CO[C@@H]1CN(C)C(=O)Nc1cccc(C(F)(F)F)c1` as the compound, how does the AC50 read?
Answer: The AC50 was 11.1 µM.

Question: For `N#C[C@H]1[C@H](c2ccc(C#Cc3ccccc3F)cc2)[C@@H](CO)N1C(=O)c1cccnc1`, which AC50 is on record?
Answer: The AC50 was 2.93 µM.

Question: How did the AC50 turn out when `N#CC(C#N)=NNc1cccc(Cl)c1` was run?
Answer: The AC50 was 6.54 µM.

Question: With `COc1ccc(S(=O)(=O)Nc2ccc3c(c2)C(=O)N([C@H](C)CO)C[C@@H](C)[C@@H](CN(C)Cc2ccc(C(F)(F)F)cc2)OCCCC[C@H](C)O3)cc1` as the compound, how does the AC50 read?
Answer: Its AC50 is 6.77 µM.

Question: With `COc1ccc(-c2cc(-c3ccccc3)c(C#N)c(S(C)=O)n2)cc1` (stereo unspecified) as the compound, how does the AC50 read?
Answer: Its AC50 is 2.55 µM.

Question: For `COc1ccc(/C=N/Nc2ncccc2[N+](=O)[O-])c(OC)c1`, which AC50 is on record?
Answer: Its AC50 is 4.23 µM.

Question: For `O=C1CC(c2ccc3c(c2)OCO3)Sc2nc3ccccc3n21` (stereo unspecified), which AC50 is on record?
Answer: The AC50 was 8.89 µM.

Question: With `CC1=CC(C)(C)N=C(Nc2nc(C)c3cc(C)cc(C)c3n2)N1` as the compound, how does the AC50 read?
Answer: The AC50 was 3.85 µM.

Question: Which AC50 does the source give for `N#C[C@@H]1[C@H](c2ccc(C#CC3CCCCC3)cc2)[C@@H](CO)N1S(=O)(=O)c1ccccc1` here?
Answer: Its AC50 is 2.28 µM.

Question: How did the AC50 turn out when `CCc1csc(N2[C@H](C#N)[C@H](c3ccc(C#Cc4ccc(F)cc4)cc3)[C@H]2CO)n1` was run?
Answer: The AC50 was > 20 µM (inactive).

Question: How did the AC50 turn out when `C[n+]1c(-c2ccccc2)cc2c(=Cc3ccc([N+](=O)[O-])cc3)c3ccccc3n21` was run?
Answer: Its AC50 is 3.93 µM.

Question: `Cn1cnc(S(=O)(=O)N2C[C@@H]3N[C@H](C2)C3c2ccc(-c3ccccc3F)cc2)c1` (stereo partly specified) was tested. Which AC50 did it give?
Answer: The AC50 was 11 µM.

Question: For `C[C@@H]1CN([C@@H](C)CO)C(=O)c2c(c3ccccc3n2C)-c2ccccc2CO[C@H]1CN(C)Cc1cccc(C(F)(F)F)c1`, which AC50 is on record?
Answer: The AC50 was 10.7 µM.

Question: With `c1ccc(-c2ccc(-c3ccccn3)nn2)nc1` as the compound, how does the AC50 read?
Answer: Its AC50 is 7.89 µM.

Question: For `CC1(C)C(=O)C=C[C@@]2(C)C1C=C[C@]1(C)C2CC[C@@]2(C)[C@H](c3ccoc3)OC(=O)[C@H]3O[C@]321` (stereo partly specified), which AC50 is on record?
Answer: Its AC50 is 5.24 µM.

Question: For `C[C@@H]1CCCCO[C@H](CN(C)Cc2ccc(C(F)(F)F)cc2)[C@@H](C)CN([C@@H](C)CO)C(=O)c2cc(NC(=O)Nc3cccc4ccccc34)ccc2O1`, which AC50 is on record?
Answer: The AC50 was > 20 µM (inactive).

Question: With `COc1ccc(S(=O)(=O)N(C)C[C@H]2Oc3ccc(NC(=O)Nc4ccc(C(F)(F)F)cc4)cc3C(=O)N([C@@H](C)CO)C[C@H]2C)cc1` as the compound, how does the AC50 read?
Answer: Its AC50 is > 20 µM (inactive).

Question: How did the AC50 turn out when `COc1cc(C(C)C)c2c(c1)S(=O)(=O)N(COc1cc(=O)n3cccc(OCCN4CCCCC4)c3n1)C2=O` was run?
Answer: Its AC50 is 2.64 µM.

Question: How did the AC50 turn out when `CC1CC(C)C(=O)C(C(CC2CC(=O)NC(=O)C2)OC(=O)CC(=O)c2ccccc2)C1` (stereo unspecified) was run?
Answer: Its AC50 is 3.18 µM.

Question: With `c1ccc(OCCSc2nnc3sc4ccccc4n23)cc1` as the compound, how does the AC50 read?
Answer: The AC50 was 4.7 µM.

Question: `OC(c1cc(-c2cccc(Cl)c2)nc2ccccc12)C1CCCCN1` (stereo unspecified) was tested. Which AC50 did it give?
Answer: The AC50 was 4.14 µM.

Question: `CC1OC(OC2C(O)CC(OC3C(O)CC(OC4CCC5(C)C(CCC6C5CCC5(C)C(C7=CC(=O)OC7)C(O)CC65O)C4)OC3C)OC2C)CC(O)C1O` (stereo unspecified) was tested. Which AC50 did it give?
Answer: Its AC50 is 0.943 µM.

Question: How did the AC50 turn out when `COC(=O)C1=C(C(=O)OC)C2OC1c1cc3ccccc3cc12` was run?
Answer: Its AC50 is 0.738 µM.

Question: With `N#C[C@@H]1[C@H](c2ccc(C#CC3CCCC3)cc2)[C@H](CO)N1C(=O)Cc1ccccn1` as the compound, how does the AC50 read?
Answer: Its AC50 is 9.08 µM.

Question: Which AC50 does the source give for `CCCCCCCCCCCCCCCC[n+]1ccccc1` here?
Answer: The AC50 was 0.266 µM.
